Experimental data reported in the NIST ThermoML archive (doi:10.1016/j.fluid.2004.12.009).
± gives the expanded uncertainty stated by the source.

What was measured:
[1] = 298.15 K, Drop volume
[2] = xn = mol fraction of the nth substance listed; details: 298.15 K, Drop volume

Cc1ccccc1C [1,2-dimethylbenzene]
Details	surface tension liquid-gas [mN/m]
[1]	29.27 ± 0.21

Cc1cccc(C)c1 [1,3-dimethylbenzene]
Details	surface tension liquid-gas [mN/m]
[1]	28.03 ± 0.21

CCCOC(=O)CC [propyl propanoate]
Details	surface tension liquid-gas [mN/m]
[1]	24.1 ± 0.19

CCCOC(=O)CC [propyl propanoate] + Cc1ccccc1C
[2]
Details	surface tension liquid-gas [mN/m]
x1 = 0.0587	28.88 ± 0.21
x1 = 0.0915	28.66 ± 0.21
x1 = 0.1548	28.27 ± 0.21
x1 = 0.2236	27.85 ± 0.21
x1 = 0.2531	27.68 ± 0.21
x1 = 0.3216	27.3 ± 0.2
x1 = 0.3862	26.95 ± 0.2
x1 = 0.4212	26.77 ± 0.2
x1 = 0.4836	26.45 ± 0.2
x1 = 0.517	26.29 ± 0.2
x1 = 0.5814	25.98 ± 0.2
x1 = 0.6503	25.64 ± 0.2
x1 = 0.6829	25.49 ± 0.19
x1 = 0.7507	25.17 ± 0.19
x1 = 0.7823	25.03 ± 0.19
x1 = 0.8909	24.54 ± 0.19
x1 = 0.9636	24.23 ± 0.19

CCCOC(=O)CC [propyl propanoate] + Cc1ccc(C)cc1
[2]
Details	surface tension liquid-gas [mN/m]
x1 = 0.061	27.46 ± 0.2
x1 = 0.0898	27.35 ± 0.2
x1 = 0.1545	27.09 ± 0.2
x1 = 0.2219	26.82 ± 0.2
x1 = 0.2558	26.69 ± 0.2
x1 = 0.3257	26.42 ± 0.2
x1 = 0.388	26.18 ± 0.2
x1 = 0.4204	26.07 ± 0.2
x1 = 0.4851	25.83 ± 0.2
x1 = 0.5211	25.71 ± 0.2
x1 = 0.5809	25.5 ± 0.19
x1 = 0.6209	25.38 ± 0.19
x1 = 0.6846	25.17 ± 0.19
x1 = 0.7187	25.07 ± 0.19
x1 = 0.7976	24.82 ± 0.19
x1 = 0.8562	24.62 ± 0.19
x1 = 0.8779	24.56 ± 0.19
x1 = 0.9544	24.28 ± 0.19

CCCOC(=O)CC [propyl propanoate] + Cc1cccc(C)c1
[2]
Details	surface tension liquid-gas [mN/m]
x1 = 0.0621	27.69 ± 0.21
x1 = 0.0989	27.5 ± 0.21
x1 = 0.1636	27.19 ± 0.2
x1 = 0.2293	26.88 ± 0.2
x1 = 0.2608	26.74 ± 0.2
x1 = 0.3264	26.45 ± 0.2
x1 = 0.4215	26.07 ± 0.2
x1 = 0.6132	25.34 ± 0.19
x1 = 0.7485	24.86 ± 0.19
x1 = 0.7827	24.74 ± 0.19
x1 = 0.8542	24.52 ± 0.19
x1 = 0.8896	24.41 ± 0.19

Cc1ccc(C)cc1 [1,4-dimethylbenzene]
Details	surface tension liquid-gas [mN/m]
[1]	27.7 ± 0.21
